Measurements from patent US8471005B2 (Cephalon, Inc., priority 2008, dated 2013).
Read-outs that look alike come from different tables or passages of the source.

Experiments:
JAK2 = molecular target: T1, JAK2 (Homo sapiens, UniProt O60674); test: Recombinant Human JAK2 Kinase Assay (TRF); assay type: biochemical; details: read-out: JAK2 Potency
T1 construct: host or cells: baculovirus expression system
Summary of the method: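 Europium-labelled PY100 antibody reported tyrosine phosphorylation of a Neutravidin-captured biotinyl 15-mer peptide by JAK2 (baculovirus-expressed, 15 ng/ml). Conditions: 20 mM HEPES pH 7.2, 0.2 μM ATP, 1 mM MnCl2, 0.1% BSA, DMSO 2.5% final, 20 min at room temperature.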

ALK = molecular target: T2, ALK (Homo sapiens, UniProt Q9UM73); test: ALK Kinase Assay (ELISA/TRF, PLC-γ substrate); assay type: biochemical; details: read-out: ALK Potency
T2 construct: host or cells: baculovirus expression system
Summary of the method: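 Read-out is time-resolved fluorescence from a Eu-N1-labeled PT66 antibody that binds phosphorylated PLC-γ, the substrate coated at 10 μg/mL in TBS. ALK at 30 ng/ml starts the reaction, which runs 15 minutes at 37° C.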

[1] = JAK2 kinase inhibition, 0.2 μM ATP
[2] = ALK kinase inhibition, 1 μM ATP

T2 sequence (Q9UM73 19-1620): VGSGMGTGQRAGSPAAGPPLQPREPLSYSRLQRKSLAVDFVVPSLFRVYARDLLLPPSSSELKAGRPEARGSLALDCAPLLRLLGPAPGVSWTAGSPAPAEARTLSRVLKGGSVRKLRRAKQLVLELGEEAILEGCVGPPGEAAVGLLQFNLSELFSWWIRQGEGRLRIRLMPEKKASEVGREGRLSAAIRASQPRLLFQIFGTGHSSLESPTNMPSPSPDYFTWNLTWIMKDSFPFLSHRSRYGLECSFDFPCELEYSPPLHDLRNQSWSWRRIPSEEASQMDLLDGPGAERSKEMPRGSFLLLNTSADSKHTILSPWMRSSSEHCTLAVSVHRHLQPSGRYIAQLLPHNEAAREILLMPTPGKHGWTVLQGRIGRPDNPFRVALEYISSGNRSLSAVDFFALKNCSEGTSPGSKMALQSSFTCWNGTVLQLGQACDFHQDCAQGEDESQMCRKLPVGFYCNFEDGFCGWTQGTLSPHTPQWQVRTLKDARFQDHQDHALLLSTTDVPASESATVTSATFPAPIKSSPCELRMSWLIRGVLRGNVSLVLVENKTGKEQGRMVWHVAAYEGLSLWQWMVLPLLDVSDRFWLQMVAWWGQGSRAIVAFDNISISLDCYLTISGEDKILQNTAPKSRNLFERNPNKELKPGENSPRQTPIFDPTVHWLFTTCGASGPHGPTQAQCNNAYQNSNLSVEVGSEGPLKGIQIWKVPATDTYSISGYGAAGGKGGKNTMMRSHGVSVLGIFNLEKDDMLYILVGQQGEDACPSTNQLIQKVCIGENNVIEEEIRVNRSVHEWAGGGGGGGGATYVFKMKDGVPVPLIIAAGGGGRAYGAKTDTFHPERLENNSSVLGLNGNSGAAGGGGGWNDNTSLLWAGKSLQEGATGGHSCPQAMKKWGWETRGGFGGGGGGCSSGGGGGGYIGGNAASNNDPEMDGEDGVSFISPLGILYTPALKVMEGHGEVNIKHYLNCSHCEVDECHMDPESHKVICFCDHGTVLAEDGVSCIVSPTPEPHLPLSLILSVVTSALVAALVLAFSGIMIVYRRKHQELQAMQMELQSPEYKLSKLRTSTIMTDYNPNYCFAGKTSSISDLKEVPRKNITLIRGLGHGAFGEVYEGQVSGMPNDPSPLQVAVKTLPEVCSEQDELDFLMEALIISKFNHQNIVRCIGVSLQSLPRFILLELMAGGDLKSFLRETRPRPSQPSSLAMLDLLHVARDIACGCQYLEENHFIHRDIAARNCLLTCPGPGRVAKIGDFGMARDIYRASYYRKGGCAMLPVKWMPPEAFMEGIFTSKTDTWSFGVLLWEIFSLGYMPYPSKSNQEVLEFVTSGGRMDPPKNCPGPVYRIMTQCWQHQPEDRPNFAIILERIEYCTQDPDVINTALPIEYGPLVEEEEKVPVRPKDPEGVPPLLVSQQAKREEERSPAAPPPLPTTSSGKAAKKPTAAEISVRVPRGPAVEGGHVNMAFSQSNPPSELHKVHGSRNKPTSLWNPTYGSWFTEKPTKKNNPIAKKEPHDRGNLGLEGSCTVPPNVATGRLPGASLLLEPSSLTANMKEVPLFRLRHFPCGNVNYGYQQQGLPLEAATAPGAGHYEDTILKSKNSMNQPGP
T1 sequence (O60674 whole entry): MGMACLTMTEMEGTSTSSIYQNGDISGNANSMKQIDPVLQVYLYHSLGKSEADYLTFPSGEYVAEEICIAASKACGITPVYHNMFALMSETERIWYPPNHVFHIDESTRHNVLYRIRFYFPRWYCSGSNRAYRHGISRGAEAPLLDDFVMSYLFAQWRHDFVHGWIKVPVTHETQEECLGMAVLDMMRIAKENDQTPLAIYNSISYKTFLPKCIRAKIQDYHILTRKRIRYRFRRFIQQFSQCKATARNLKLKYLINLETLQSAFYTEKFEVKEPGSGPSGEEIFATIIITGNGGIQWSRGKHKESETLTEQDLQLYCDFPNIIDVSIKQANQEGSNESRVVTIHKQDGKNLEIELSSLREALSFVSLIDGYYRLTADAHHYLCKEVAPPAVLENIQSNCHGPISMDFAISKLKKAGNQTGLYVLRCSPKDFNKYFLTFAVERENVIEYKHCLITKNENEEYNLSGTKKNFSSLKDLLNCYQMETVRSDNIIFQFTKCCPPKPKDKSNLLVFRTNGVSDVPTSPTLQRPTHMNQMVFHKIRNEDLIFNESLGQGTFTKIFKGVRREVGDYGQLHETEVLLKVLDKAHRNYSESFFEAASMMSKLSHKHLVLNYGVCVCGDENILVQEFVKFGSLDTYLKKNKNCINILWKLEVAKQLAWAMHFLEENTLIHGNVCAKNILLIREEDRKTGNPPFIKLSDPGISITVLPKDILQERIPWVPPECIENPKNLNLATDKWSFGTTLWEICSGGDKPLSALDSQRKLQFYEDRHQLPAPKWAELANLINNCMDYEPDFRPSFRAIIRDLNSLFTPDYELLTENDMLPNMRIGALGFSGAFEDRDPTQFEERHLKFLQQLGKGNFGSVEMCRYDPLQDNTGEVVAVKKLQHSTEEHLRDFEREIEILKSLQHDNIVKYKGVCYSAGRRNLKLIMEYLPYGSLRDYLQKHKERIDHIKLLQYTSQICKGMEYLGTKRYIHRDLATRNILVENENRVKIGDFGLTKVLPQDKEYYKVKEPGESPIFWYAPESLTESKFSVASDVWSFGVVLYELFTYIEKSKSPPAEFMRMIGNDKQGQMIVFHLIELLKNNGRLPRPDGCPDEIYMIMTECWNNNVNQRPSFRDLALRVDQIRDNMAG

| Compound | IC50 (JAK2; JAK2 Kinase Inhibition) | IC50 (ALK; ALK Kinase Inhibition) | IC50 (JAK2; [1]) | IC50 (ALK; [2]) |
| --- | --- | --- | --- | --- |
| COc1ccccc1-c1ccc2cnc(Nc3ccc4nc(CN5CCN(CCO)CC5)[nH]c4c3)nn12 [Example 1522, 2-(4-{6-[7-(2-Methoxy-phenyl)-pyrrolo[2,1-f][1,2,4]triazin-2-ylamino]-1H-benzimidazol-2-ylmethyl}-piperazin-1-yl)-ethanol] | < 100 nM | 100 to 1000 nM |  |  |
| CCN(CC)C1CCN(c2ccc(Nc3ncc4ccc(-c5cccc(NS(=O)(=O)C(C)(C)C)c5)n4n3)cc2)CC1 [Example 1205, 2-Methyl-propane-2-sulfonic acid (3-{2-[4-(4-diethylamino-piperidin-1-yl)-phenylamino]-pyrrolo[2,1-f][1,2,4]triazin-7-yl}-phenyl)-amide] |  |  | < 100 nM | 100 to 1000 nM |
| CN1CCOc2ccc(Nc3ncc4ccc(-c5cccc(S(=O)(=O)NC(C)(C)C)c5)n4n3)cc21 [Example 650, N-tert-Butyl-3-[2-(4-methyl-3,4-dihydro-2H-benzo[1,4]oxazin-6-ylamino)-pyrrolo[2,1-f][1,2,4]triazin-7-yl]-benzenesulfonamide] |  |  | < 100 nM | 100 to 1000 nM |
| CN1CCN(C)C(c2ccc(Nc3ncc4ccc(-c5ccccc5N(C)S(C)(=O)=O)n4n3)cc2)C1=O (centres unmarked) [Example 1073, N-(2-{2-[4-(1,4-Dimethyl-3-oxo-piperazin-2-yl)-phenylamino]-pyrrolo[2,1-f][1,2,4]triazin-7-yl}-phenyl)-N-methyl-methanesulfonamide] |  |  | < 100 nM | 100 to 1000 nM |
| CC(=O)N1CCOc2ccc(Nc3ncc4ccc(-c5cccc(S(=O)(=O)NC(C)(C)C)c5)n4n3)cc21 [Example 1373, 3-[2-(4-Acetyl-3,4-dihydro-2H-benzo[1,4]oxazin-6-ylamino)-pyrrolo[2,1-f][1,2,4]triazin-7-yl]-N-tert-butyl-benzenesulfonamide] | < 100 nM | < 100 nM |  |  |
| COc1ccccc1-c1ccc2cnc(-c3nnc(C)[nH]3)nn12 [Example 1501, 7-(2-Methoxy-phenyl)-2-(5-methyl-4H-[1,2,4]triazol-3-yl)-pyrrolo[2,1-f][1,2,4]triazine] | > 10000 nM | > 10000 nM |  |  |
| COc1cc(N2CCCN(C[C@@H](C)O)CC2)ccc1Nc1ncc2ccc(-c3ccccc3N(C)S(C)(=O)=O)n2n1 [Example 772, N-[2-(2-{4-[4-((R)-2-Hydroxy-propyl)-[1,4]diazepan-1-yl]-2-methoxy-phenylamino}-pyrrolo[2,1-f][1,2,4]triazin-7-yl)-phenyl]-N-methyl-methanesulfonamide] |  |  | 100 to 1000 nM | < 100 nM |
| COc1cc(Nc2ncc3ccc(-c4cccc(S(=O)(=O)NC(C)(C)C)c4)n3n2)ccc1C1CCN(CC(N)=O)CC1 [Example 924, 2-(4-{4-[7-(3-tert-Butylsulfamoyl-phenyl)-pyrrolo[2,1-f][1,2,4]triazin-2-ylamino]-2-methoxy-phenyl}-piperidin-1-yl)-acetamide] |  |  | < 100 nM | < 100 nM |
| CC(C)(C)NS(=O)(=O)c1cccc(-c2ccc3cnc(Nc4ccc(N5CCC(N6CCNC(=O)C6)CC5)cc4)nn23)c1 [Example 562, N-tert-Butyl-3-(2-{4-[4-(3-oxo-piperazin-1-yl)-piperidin-1-yl]-phenylamino}-pyrrolo[2,1-f][1,2,4]triazin-7-yl)-benzenesulfonamide] |  |  | < 100 nM | 100 to 1000 nM |
| COc1ccc(Nc2ncc3ccc(-c4ccccc4N(C)S(C)(=O)=O)n3n2)cc1N1CCOCC1 [Example 393, N-{2-[2-(4-Methoxy-3-morpholin-4-yl-phenylamino)-pyrrolo[2,1-f][1,2,4]triazin-7-yl]-phenyl}-N-methyl-methanesulfonamide] | < 100 nM | < 100 nM |  |  |
| CS(=O)(=O)c1cccc(-c2ccc3cnc(Nc4ccc(CN5CCS(=O)(=O)CC5)cc4)nn23)c1 [Example 1049, [4-(1,1-Dioxo-1$1(6)-thiomorpholin-4-ylmethyl)-phenyl]-[7-(3-methanesulfonyl-phenyl)-pyrrolo[2,1-f][1,2,4]triazin-2-yl]-amine] |  |  | < 100 nM | 1000 to 10000 nM |
| CN(c1ccccc1-c1ccc2cnc(Nc3ccc4cnn(CCN5CCOCC5)c4c3)nn12)S(C)(=O)=O [Example 1334, N-Methyl-N-(2-{2-[1-(2-morpholin-4-yl-ethyl)-1H-indazol-6-ylamino]-pyrrolo[2,1-f][1,2,4]triazin-7-yl}-phenyl)-methanesulfonamide] |  |  | < 100 nM | 1000 to 10000 nM |
| CNS(=O)(=O)c1cccc(-c2ccc3cnc(Nc4ccc(N5CCN(C)CC5)cc4)nn23)c1 [Example 366, N-Methyl-3-{2-[4-(4-methyl-piperazin-1-yl)-phenylamino]-pyrrolo[2,1-f][1,2,4]triazin-7-yl}-benzenesulfonamide] | < 100 nM | 100 to 1000 nM |  |  |
| COc1ccccc1-c1ccc2cnc(Nc3ccc4c(c3)CC(=O)N4)nn12 [Example 432, 5-[7-(2-Methoxy-phenyl)-pyrrolo[2,1-f][1,2,4]triazin-2-ylamino]-1,3-dihydro-indol-2-one] | < 100 nM | 100 to 1000 nM |  |  |
| Clc1cccc(-c2ccc3cnc(Nc4ccc5ncccc5c4)nn23)c1 [Example 177, [7-(3-Chloro-phenyl)-pyrrolo[2,1-f][1,2,4]triazin-2-yl]-quinolin-6-yl-amine] | < 100 nM | 100 to 1000 nM |  |  |
| COc1ccc(-c2ccc3cnc(Nc4ccc(N5CCN(CC(N)=O)CC5)c(F)c4)nn23)cn1 [Example 1414, 2-(4-{2-Fluoro-4-[7-(6-methoxy-pyridin-3-yl)-pyrrolo[2,1-f][1,2,4]triazin-2-ylamino]-phenyl}-piperazin-1-yl)-acetamide] | < 100 nM | 1000 to 10000 nM |  |  |
| CCN1CCC(O)(c2ccc(Nc3ncc4ccc(-c5ccccc5N(C)S(C)(=O)=O)n4n3)c(OC)c2)CC1 [Example 743, N-(2-{2-[4-(1-Ethyl-4-hydroxy-piperidin-4-yl)-2-methoxy-phenylamino]-pyrrolo[2,1-f][1,2,4]triazin-7-yl}-phenyl)-N-methyl-methanesulfonamide] |  |  | 1000 to 10000 nM | < 100 nM |
| COc1cc(N2CCC(C(=O)N3CCN(C)CC3)CC2)ccc1Nc1ncc2ccc(-c3ccccc3OC)n2n1 [Example 458, (1-{3-Methoxy-4-[7-(2-methoxy-phenyl)-pyrrolo[2,1-f][1,2,4]triazin-2-ylamino]-phenyl}-piperidin-4-yl)-(4-methyl-piperazin-1-yl)-methanone] | 100 to 1000 nM | < 100 nM |  |  |
| COCc1ccc(-c2ccc3cnc(Nc4ccc(N5CCN(C)CC5)cc4)nn23)cc1 [Example 1499, [7-(4-Methoxymethyl-phenyl)-pyrrolo[2,1-f][1,2,4]triazin-2-yl]-[4-(4-methyl-piperazin-1-yl)-phenyl]-amine] | < 100 nM | 100 to 1000 nM |  |  |
| COc1cc2c(cc1Nc1ncc3ccc(-c4cccc5c4OCC5)n3n1)CCNCC2 [Example 709, [7-(2,3-Dihydro-benzofuran-7-yl)-pyrrolo[2,1-f][1,2,4]triazin-2-yl]-(8-methoxy-2,3,4,5-tetrahydro-1H-3-benzazepin-7-yl)-amine] |  |  | < 100 nM | < 100 nM |
| CCNS(=O)(=O)c1cccc(-c2ccc3cnc(Nc4ccc(C5CCN(C)CC5)cc4)nn23)c1 [Example 907, N-Ethyl-3-{2-[4-(1-methyl-piperidin-4-yl)-phenylamino]-pyrrolo[2,1-f][1,2,4]triazin-7-yl}-benzenesulfonamide] |  |  | < 100 nM | < 100 nM |
| COc1cc(N2CCC(N3CCCC3)CC2)ccc1Nc1ncc2ccc(-c3ccccc3N(C)S(C)(=O)=O)n2n1 [Example 480, N-(2-{2-[2-Methoxy-4-(4-pyrrolidin-1-yl-piperidin-1-yl)-phenylamino]-pyrrolo[2,1-f][1,2,4]triazin-7-yl}-phenyl)-N-methyl-methanesulfonamide] |  |  | 1000 to 10000 nM | < 100 nM |
| Fc1cccc(-c2ccc3cnc(Nc4cccc(N5CCOCC5)c4)nn23)c1 [Example 175, [7-(3-Fluoro-phenyl)-pyrrolo[2,1-f][1,2,4]triazin-2-yl]-(3-morpholin-4-yl-phenyl)-amine] | < 100 nM | 100 to 1000 nM |  |  |
| CN1CCN(c2ccc(Nc3ncc4ccc(-c5cccc(Cl)c5)n4n3)cc2)CC1 [Example 26, [7-(3-Chloro-phenyl)-pyrrolo[2,1-f][1,2,4]triazin-2-yl]-[4-(4-methyl-piperazin-1-yl)-phenyl]-amine] | < 100 nM | < 100 nM |  |  |
| Fc1cc(N2CCOCC2)ccc1Nc1ncc2ccc(-c3cccnc3)n2n1 [Example 372, (2-Fluoro-4-morpholin-4-yl-phenyl)-(7-pyridin-3-yl-pyrrolo[2,1-f][1,2,4]triazin-2-yl)-amine] | < 100 nM | 100 to 1000 nM |  |  |
| CN1CCN(c2ccc(Nc3ncc4ccc(-c5ccccc5OCC(=O)O)n4n3)cc2)CC1 [Example 1182, (2-{2-[4-(4-Methyl-piperazin-1-yl)-phenylamino]-pyrrolo[2,1-f][1,2,4]triazin-7-yl}-phenoxy)-acetic acid] |  |  | < 100 nM | 100 to 1000 nM |
| CCc1nc2ccc(Nc3ncc4ccc(-c5cccc(S(=O)(=O)NC(C)(C)C)c5)n4n3)cc2[nH]1 [Example 1328, N-tert-Butyl-3-[2-(2-ethyl-3H-benzimidazol-5-ylamino)-pyrrolo[2,1-f][1,2,4]triazin-7-yl]-benzenesulfonamide] |  |  | < 100 nM | 100 to 1000 nM |
| CN1CCOCc2cc(Nc3ncc4ccc(-c5cccc(NS(C)(=O)=O)c5)n4n3)ccc21 [Example 619, N-{3-[2-(1-Methyl-1,2,3,5-tetrahydro-benzo[e][1,4]oxazepin-7-ylamino)-pyrrolo[2,1-f][1,2,4]triazin-7-yl]-phenyl}-methanesulfonamide] |  |  | < 100 nM | 100 to 1000 nM |
